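Tested at 5 concentrations; 48 h exposure; 96-well plates; endpoints linearly interpolated, else capped at highest concentration. GI50 marks 50% less growth.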 The source made the active and inactive calls. No stated cut-off is given here; in the data, active = GI50 up to about 1.1 µM and inactive = higher. Some results are limits rather than exact numbers.

The values below come from ChEMBL document CHEMBL1201862, “PubChem BioAssay data set” (2004).

Assay in all cases: inhibition of tumour cell growth, NCI panel, 48 h
In test [1] the test system is COLO 205.
Test [2] relates to MOLT-4.
Test [3] relates to IGROV-1.
For test [4], the system named is T47D.
The test system of test [5] is RXF 393.
Test [6] deals with MDA-MB-231.
Test [7] deals with HOP-92.
Test [8] concerns ACHN.
Test [9] relates to NCI/ADR-RES.
Test [10] concerns HCT-116.
The subject of test [11] is Malme-3M.
In test [12] the test system is UO-31.
Test [13] deals with PC-3.
Test [14] relates to OVCAR-8.
For test [15], the system named is MDA-N.
The subject of test [16] is UACC-62.
For test [17], the system named is NCI-H522.
The test system of test [18] is NCI-H23.
In test [19] the test system is TK-10.
Test [20] relates to A498.

`C=C(C(=O)OC1C(CO)OC(OCC2CC[C@@H]3C[C@]4(OC(=O)C3=C)C(C)=CC(=O)C24)C(O)C1O)[C@@H]1CCC(CO)C2C(=O)C=C(C)[C@@]2(O)C1` (some centres undefined): the GI50 is 0.28 µM (active) in test [1]; 0.693 µM (active) in [2]; 2.79 µM (inactive) in test [3]; 2.55 µM (inactive) in test [4]; 0.757 µM (active) in [5]; 1.64 µM (inactive) in test [6]. The GI50 was 2.63 µM (inactive) in [7]; 1.44 µM (inactive) in test [8]; 2.19 µM (inactive) in test [9]; 1.22 µM (inactive) in [10]; 1.46 µM (inactive) in test [11]; 1.76 µM (inactive) in test [12]. For the same compound, the GI50 was 1.54 µM (inactive) in test [13]; 1.43 µM (inactive) in test [14]; 1.44 µM (inactive) in [15]; 1.62 µM (inactive) in test [16]; 0.243 µM (active) in test [17]; 1.63 µM (inactive) in test [18]. In addition, the results for the GI50 in test [19] and in test [20] were 3.07 µM (inactive) and 2.9 µM (inactive), respectively.

As to `C#CC[C@@H]1C(=O)N(Cc2ccc(OC)cc2)[C@@H](C(C)C)C(=O)N1Cc1ccc(OC)cc1`, the GI50 is 19.4 µM (inactive) in test [1]; 15.1 µM (inactive) in test [2]; > 100 µM (inactive) in test [3]; 16.4 µM (inactive) in test [4]; 2.79 µM (inactive) in test [5]; 83.2 µM (inactive) in test [6]. In addition, the GI50 in test [7] is 84.3 µM (inactive); in test [8] it was 45.4 µM (inactive); in [9], 31.2 µM (inactive); in test [10], 28.1 µM (inactive); in test [11], 55.2 µM (inactive); in test [12], 33.7 µM (inactive). For the same compound, the GI50 in test [13] was 24 µM (inactive); in [14], 46.1 µM (inactive); in [15], 22.9 µM (inactive); in [16], 25.2 µM (inactive); in test [17] it was 28 µM (inactive); in test [18], 33.2 µM (inactive). Further, the GI50 was 49.9 µM (inactive) in test [19] and 36 µM (inactive) in test [20].

Consider `S=c1nc2[nH]c3ccc(Br)cc3c2n[nH]1`, for which the GI50 in [1] was 98.4 µM (inactive); in test [2], 30.3 µM (inactive); in test [3], 19.3 µM (inactive); in test [4], > 100 µM (inactive); in test [5], > 100 µM (inactive); in [6] it was 49.9 µM (inactive). Further, the GI50 in test [7] was > 100 µM (inactive); in test [9], 39.8 µM (inactive); in [10], 70.5 µM (inactive); in [11], 83.8 µM (inactive); in test [12], 72.8 µM (inactive); in [13], 43.1 µM (inactive). Besides, the GI50 in test [14] is 52.1 µM (inactive); in test [15] it was 16.7 µM (inactive); in [16], 30.5 µM (inactive); in test [17], 24.3 µM (inactive); in test [19] it was > 100 µM (inactive); in test [20] it was > 100 µM (inactive).

As to `CNC(=O)Nc1nc2cc([N+](=O)[O-])ccc2[nH]1`, the GI50 in [1] is > 100 µM (inactive); in test [2], > 100 µM (inactive); in test [3] it was 64.6 µM (inactive); in [4], > 100 µM (inactive); in test [5] it was > 100 µM (inactive); in [6], > 100 µM (inactive). Further, the GI50 in test [7] was 86.1 µM (inactive); in test [8], > 100 µM (inactive); in [9], > 100 µM (inactive); in [10] it was > 100 µM (inactive); in test [11], > 100 µM (inactive); in test [12], > 100 µM (inactive). The GI50 in [13] is > 100 µM (inactive); in [14], > 100 µM (inactive); in [15], > 100 µM (inactive); in test [17] it was 44.1 µM (inactive); in test [18], > 100 µM (inactive); in test [19], > 100 µM (inactive). Also, the GI50 in test [20] is > 100 µM (inactive).

In the case of `CC1CC(=O)N(N(C)C)C(C#N)(C#N)C1(C#N)C#N` (centres undefined), the GI50 was 3 µM (inactive) in test [1]; 1.87 µM (inactive) in [2]; 20.2 µM (inactive) in test [3]; 15.5 µM (inactive) in [4]; 10.6 µM (inactive) in test [5]; 15.2 µM (inactive) in test [6]. For the same compound, the GI50 was 7.6 µM (inactive) in test [7]; 15.4 µM (inactive) in test [8]; 21.7 µM (inactive) in test [9]; 17 µM (inactive) in [10]; 12.2 µM (inactive) in test [11]; 16.9 µM (inactive) in test [12]. Moreover, the GI50 was 18.4 µM (inactive) in [13]; 20.9 µM (inactive) in test [14]; 18.1 µM (inactive) in test [15]; 18.3 µM (inactive) in test [16]; 2.77 µM (inactive) in [17]; 20 µM (inactive) in test [18]. Also, the GI50 in [19] was 16 µM (inactive); in [20] it was 17.8 µM (inactive).

For `CN(C)CCCN1C(=S)N(CCCN(C)C)c2c3ccccc3nc3c([N+](=O)[O-])ccc1c23`, the GI50 in test [1] was 1.71 µM (inactive); in test [2] it was 5.58 µM (inactive); in [3], 3.06 µM (inactive); in [4], 15 µM (inactive); in test [5], 5.08 µM (inactive); in test [6] it was 10.4 µM (inactive). The GI50 in test [7] is 5.33 µM (inactive); in test [8], 4.06 µM (inactive); in test [9], 6.95 µM (inactive); in test [10], 3.71 µM (inactive); in test [11] it was 1.75 µM (inactive); in test [12], 5.66 µM (inactive). In addition, the GI50 in test [13] is 5.83 µM (inactive); in test [14], 5.31 µM (inactive); in [15] it was 7.46 µM (inactive); in test [16], 9.95 µM (inactive); in [17] it was 1.77 µM (inactive); in test [18], 9.08 µM (inactive). Moreover, the GI50 in test [19] is 10 µM (inactive); in [20], 7.71 µM (inactive).

With `O=C(/C=C/c1ccccc1)OCC1=C[C@@H](O)[C@@H]2C=CO[C@@H](OC3OC(CO)C(O)C(O)C3O)[C@H]12` (some centres undefined), the GI50 in test [1], in [2], in [3], in test [4], in [5] and in test [6] was > 100 µM (inactive) in each case. Moreover, the GI50 in test [7], in test [8], in [9], in test [10], in [11] and in test [12] was > 100 µM (inactive) each time. Besides, the GI50 in [13], in test [14], in test [15], in test [16], in [17] and in test [18] was > 100 µM (inactive) throughout. Moreover, the GI50 in test [19] and in [20] was > 100 µM (inactive) in each case.

`O/N=C(\CC(O)(C(F)(F)F)C(F)(F)F)c1cccc(Cl)c1`: the GI50 in [1] was 35.6 µM (inactive); in test [2] it was 15.5 µM (inactive); in test [3], 27.1 µM (inactive); in [4], 32.7 µM (inactive); in test [5] it was 15.6 µM (inactive); in test [6], 22.5 µM (inactive). The GI50 in [7] was 23.1 µM (inactive); in test [8], 23.8 µM (inactive); in test [9] it was 38 µM (inactive); in test [10] it was 37.4 µM (inactive); in test [11], 33.7 µM (inactive); in test [13], 29.9 µM (inactive). Further, the GI50 in test [14] was 37.4 µM (inactive); in test [15], 37.3 µM (inactive); in test [16], 38.9 µM (inactive); in test [17], 30.5 µM (inactive); in [18], 20.5 µM (inactive); in test [19] it was 22.3 µM (inactive). Moreover, in [20], the GI50 is 34 µM (inactive).

For the compound `COc1ccc(/C(CCl)=C(\Nc2ccccc2)c2ccc(OC)c(OC)c2)cc1OC`, the GI50 in test [1] is > 100 µM (inactive); in test [2] it was 28.6 µM (inactive); in [4], 27.7 µM (inactive); in test [5] it was 36.1 µM (inactive); in test [6], 93.1 µM (inactive); in test [7] it was 55.1 µM (inactive). In addition, the GI50 in [8] is 45.3 µM (inactive); in test [9], > 100 µM (inactive); in test [10] it was 27.6 µM (inactive); in test [11] it was > 100 µM (inactive); in [12], 46.5 µM (inactive); in test [13], 65 µM (inactive). For the same compound, the GI50 is > 100 µM (inactive) in test [14]; > 100 µM (inactive) in test [15]; > 100 µM (inactive) in test [16]; 94 µM (inactive) in test [17]; 49.3 µM (inactive) in test [18]; > 100 µM (inactive) in [19]. Moreover, the GI50 in test [20] is > 100 µM (inactive).

Consider `CC(=O)OCC1=C(C(=O)O)N2C(=O)C(NC(=O)CSc3ccncc3)C2SC1` (centres undefined), for which the GI50 in [1], in test [2], in [3], in test [4], in test [5] and in test [6] was > 100 µM (inactive) in each case. For the same compound, the GI50 in test [7], in test [8], in [9], in test [10], in test [11] and in [12] was > 100 µM (inactive) throughout. Also, the GI50 in test [13], in [14], in test [15], in test [16], in [17] and in test [18] was > 100 µM (inactive) each time. For the same compound, the GI50 in test [20] is > 100 µM (inactive).
